Where a name gives a salt, the structure may show the parent alone. Read-outs that look alike come from different tables or passages of the source.
How the values were obtained:
[1] = target: nAChR formed by the α7 subunit isoform (Rattus norvegicus, UniProt Q05941); assay: biochemical; format: binding
[2] = target: nAChRs comprised of α4 and β2 subunits (Rattus norvegicus, UniProt P09483+P12390); assay: In vitro inhibition of 3H-cytisine binding
Experimental: In Vitro Inhibition of ^3H-cytisine Binding
The predominant subtype with high affinity for nicotine is comprised of α4 and β2 subunits. nAChRs of the latter type can selectively be labelled by the nicotine agonist ^3H-cytisine.
Tissue Preparation: Preparations are performed at 0-4° C. unless otherwise indicated. […] The homogenate is centrifuged at 27,000×g for 10 min. The supernatant is discarded and the pellet is resuspended in fresh buffer and centrifuged a second time. The final pellet is resuspended in fresh buffer (35 ml per g of original tissue) and used for binding assays.
Assay: Aliquots of 500 μl homogenate are added to 25 μl of test solution and 25 μl of ^3H-cytisine (1 nM, final concentration), mixed and incubated for 90 min at 2° C. Non-specific binding is determined using (−)-nicotine (100 μM, final concentration). After incubation the samples are added 5 ml of ice-cold buffer and poured directly onto Whatman GF/C glass fibre filters under suction and immediately washed with 2×5 ml ice-cold buffer. The amount of radioactivity on the filters is determined by conventional liquid scintillation counting. Specific binding is total binding minus non-specific binding.

[3] = target: T1, α4β2 subtype of nicotinic receptors (neuronal nicotinic receptors) (Rattus norvegicus, UniProt P09483+P12390); assay: In vitro inhibition of 3H-epibatidin binding
T1 construct: The forebrain (÷cerebellum) from a male Wistar rat (150-250 g) is homogenized; from tissue; host or cells: rat forebrain (without cerebellum) homogenate (male Wistar)
T1 sequence (P09483 31-630): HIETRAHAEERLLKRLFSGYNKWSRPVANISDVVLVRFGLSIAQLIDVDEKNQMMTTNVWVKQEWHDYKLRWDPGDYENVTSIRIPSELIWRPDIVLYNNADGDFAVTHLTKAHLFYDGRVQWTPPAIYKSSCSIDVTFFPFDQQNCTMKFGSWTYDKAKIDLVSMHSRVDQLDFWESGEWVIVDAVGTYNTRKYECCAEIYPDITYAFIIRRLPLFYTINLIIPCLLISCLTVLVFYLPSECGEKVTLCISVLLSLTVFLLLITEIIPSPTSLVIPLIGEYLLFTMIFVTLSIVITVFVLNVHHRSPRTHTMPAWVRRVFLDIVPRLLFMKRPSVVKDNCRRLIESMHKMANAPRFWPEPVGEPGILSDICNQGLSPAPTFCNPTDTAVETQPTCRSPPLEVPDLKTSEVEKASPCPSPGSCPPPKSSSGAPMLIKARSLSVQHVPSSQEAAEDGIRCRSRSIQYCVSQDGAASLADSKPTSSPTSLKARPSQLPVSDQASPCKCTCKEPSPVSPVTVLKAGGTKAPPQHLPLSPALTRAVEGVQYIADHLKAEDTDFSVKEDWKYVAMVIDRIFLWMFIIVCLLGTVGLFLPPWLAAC
T1 sequence (P12390 25-500): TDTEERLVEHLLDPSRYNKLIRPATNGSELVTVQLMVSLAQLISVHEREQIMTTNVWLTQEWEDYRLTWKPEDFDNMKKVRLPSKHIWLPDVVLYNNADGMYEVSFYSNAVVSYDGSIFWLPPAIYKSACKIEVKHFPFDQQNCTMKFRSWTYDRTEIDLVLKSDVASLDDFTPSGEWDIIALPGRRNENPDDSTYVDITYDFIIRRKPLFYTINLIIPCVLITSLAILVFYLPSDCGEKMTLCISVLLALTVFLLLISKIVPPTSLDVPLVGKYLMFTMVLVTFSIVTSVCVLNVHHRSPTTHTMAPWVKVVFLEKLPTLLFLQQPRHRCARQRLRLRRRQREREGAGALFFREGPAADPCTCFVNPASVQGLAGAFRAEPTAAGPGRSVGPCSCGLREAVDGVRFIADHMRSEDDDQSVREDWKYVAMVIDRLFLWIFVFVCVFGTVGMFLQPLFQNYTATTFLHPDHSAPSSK
Experimental: In Vitro Inhibition of ^3H-epibatidin Binding
The high affinity binding site for ^3H-epibatidin is most certainly binding to the α4β2 subtype of nicotinic receptors. The identity of the low affinity site is still unknown; does it represent a second nicotinic receptor or a second site in the same receptor.
Tissue preparation: Preparations are performed at 0-4° C. unless otherwise indicated. The forebrain (÷cerebellum) from a male Wistar rat (150-250 g) is homogenized for 10-20 sec in 20 ml Tris, HCl (50 mM, pH 7.4) using an Ultra-Turrax homogenizer. The tissue suspension is centrifuged at 27,000×g for 10 min. The supernatant is discarded and the pellet is washed three times by centrifugation at 27,000×g for 10 min in 20 ml fresh buffer, and the final pellet is resuspended in fresh buffer (400 ml per g of original tissue) and used for binding assays.
Assay: Aliquots of 2.0 ml homogenate are added to 0.100 ml of test solution and 0.100 ml of ^3H-epibatidin (0.3 nM, final concentration), mixed and incubated for 60 min at room temperature. Non-specific binding is determined using (−)-nicotine (30 μM, final concentration). After incubation the samples are poured directly onto Whatman GF/C glass fibre filters (presoaked in 0.1% PEI for at least 20 min) under suction and immediately washed with 2×5 ml ice-cold buffer. The amount of radioactivity on the filters is determined by conventional liquid scintillation counting. Specific binding is total binding minus non-specific binding.

[4] = read-out: 3H-α-bungarotoxin IC50
[5] = rat cerebral cortex homogenate, 1 nM 3H-cytisine, 90 min at 2° C., read-out: 3H-cytisine IC50

Chain of nAChRs comprised of α4 and β2 subunits (P09483 31-630): as the sequence (P09483 31-630) above
Chain of nAChRs comprised of α4 and β2 subunits (P12390 25-500): as the sequence (P12390 25-500) above
Chain of nAChR formed by the α7 subunit isoform (Q05941 23-502): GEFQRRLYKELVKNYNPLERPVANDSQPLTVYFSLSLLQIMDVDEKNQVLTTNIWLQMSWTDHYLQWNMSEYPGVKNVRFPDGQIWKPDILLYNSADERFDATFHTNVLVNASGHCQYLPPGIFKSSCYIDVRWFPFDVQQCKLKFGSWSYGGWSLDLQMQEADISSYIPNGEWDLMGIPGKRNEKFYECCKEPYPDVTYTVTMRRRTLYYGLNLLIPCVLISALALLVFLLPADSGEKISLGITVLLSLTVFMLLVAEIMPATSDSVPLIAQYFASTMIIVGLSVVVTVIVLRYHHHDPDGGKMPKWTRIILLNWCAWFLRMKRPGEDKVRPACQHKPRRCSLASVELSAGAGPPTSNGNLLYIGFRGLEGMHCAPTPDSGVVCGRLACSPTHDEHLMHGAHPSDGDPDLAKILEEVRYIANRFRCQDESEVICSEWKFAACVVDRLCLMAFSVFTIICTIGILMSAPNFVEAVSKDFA

C1=C(c2cccnc2)CC2CCCC1N2Cc1ccccc1.O=C(O)/C=C/C(=O)O (racemic)
melting point: 186 to 187 °C

CN1C2C=C(c3ccc4c(c3)OCO4)CC1CCC2.O=C(O)/C=C/C(=O)O (racemic)
melting point: 159 to 163 °C

CN1C2C=C(c3cccc4ncccc34)CC1CCC2 (racemic)
melting point: 142 to 144 °C

CN1C2C=C(c3nc4ccccc4s3)CC1CCC2.O=C(O)/C=C/C(=O)O (racemic)
melting point: 176 to 177 °C

COc1cncc(C2=CC3CCCC(C2)N3C)c1 (racemic) (as salt: fumaric acid salt) [Compound 2a, (±)-3-[3-(5-Methoxy)-pyridyl]-9-methyl-9-azabicyclo[3.3.1]non-2-ene Fumaric Acid Salt]
melting point: 125 to 126.5 °C

CN1C2C=C(c3cncc(-c4ccccc4)c3)CC1CCC2 (racemic) (as salt: fumaric acid salt) [Compound 3a, (±)-9-Methyl-3-[3-(5-phenyl)-pyridyl]-9-azabicyclo[3.3.1]non-2-ene Fumaric Acid Salt]
melting point: 147.5 to 149.5 °C

COc1ccc(C2=CC3CCCC(C2)N3C)cn1 (racemic) (as salt: fumaric acid salt) [Compound 5b, (±)-3-[3-(6-Methoxy)-pyridyl)]-9-methyl-9-azabicyclo[3.3.1]non-2-ene Fumaric Acid Salt]
melting point: 116 to 124 °C

C1=C(c2cccnc2)CC2CCCC1N2 (racemic) (as salt: fumaric acid salt) [Compound 11c, (±)-9-H-3-(3-Pyridyl)-9-azabicyclo[3.3.1]oct-2-ene Fumaric Acid Salt]
melting point: 188.5 to 190 °C

CN1C2C=C(c3ccc4ccccc4c3)CC1CCC2 (racemic) (as salt: oxalic acid salt) [Compound 8c, (±)-3-(2-Naphtyl)-9-methyl-9-azabicyclo[3.3.1]non-2-ene Oxalic Acid Salt]
melting point: 87.9 to 92.2 °C

CN1C2C=C(c3cccnc3)CC1CCC2.O=C(O)/C=C/C(=O)O (racemic) [Compound 1a, (±)-9-Methyl-3-(3-pyridyl)-9-azabicyclo[3.3.1]non-2-ene Fumaric Acid Salt]
IC50 [1, 4]: 500 nM
melting point: 164.5 to 166.5 °C
IC50 [2]: 23 nM
IC50 [3]: 84 nM

CN1C2C=C(c3cncnc3)CC1CCC2.O=C(O)/C=C/C(=O)O (racemic) [Compound 1b, (±)-9-Methyl-3-(5-pyrimidyl)-9-azabicyclo[3.3.1]non-2-ene Fumaric Acid Salt]
IC50 [1, 4]: 1600 nM
melting point: 198 to 202 °C
IC50 [2]: 78 nM
IC50 [3]: 52 nM

CN1C2C=C(c3cccc(N)c3)CC1CCC2.O=C(O)/C=C/C(=O)O (racemic) [Compound 1c, (±)-3-(3-Aminophenyl)-9-methyl-9-azabicyclo[3.3.1]non-2-ene Fumaric Acid Salt]
IC50 [1]: 220 nM
melting point: 174 to 180 °C
IC50 [2, 5]: 40 nM
IC50 ([3]; rat forebrain homogenate, 0.3 nM 3H-epibatidin, 60 min at room temperature, read-out: 3H-epibatidin IC50): 180 nM

CN1C2C=C(c3cccn3C)CC1CCC2 (racemic) [Compound 1d, (±)-3-[2-(1-Methyl-pyrrolyl)]-9-methyl-9-azabicyclo[3.3.1]non-2-ene]
IC50 [1, 4]: 1900 nM
IC50 [2]: 1800 nM

COc1cncc(C2=CC3CCCC(C2)N3C)c1 (racemic) [Compound 2a, (±)-3-[3-(5-Methoxy)-pyridyl]-9-methyl-9-azabicyclo[3.3.1]non-2-ene Fumaric Acid Salt]
IC50 [1, 4]: 2000 nM
IC50 [2]: 17 nM
IC50 [3]: 76 nM

CN1C2C=C(c3cncc(-c4cccnc4)c3)CC1CCC2.O=C(O)/C=C/C(=O)O (racemic) [Compound 2b, (±)-9-Methyl-3-[5-(3-pyridyl)-3-pyridyl]-9-azabicyclo[3.3.1]non-2-ene Fumaric Acid Salt]
IC50 [1, 4]: 17000 nM
melting point: 206 to 208 °C
IC50 [2]: 13 nM
IC50 [3]: 240 nM

CC(=O)Nc1cccc(C2=CC3CCCC(C2)N3C)c1.CC(=O)O (racemic) [Compound 2c, (±)-3-(3-Acetamidophenyl)-9-methyl-9-azabicyclo[3.3.1]non-2-ene Acetic Acid Salt]
IC50 [1, 4]: 1700 nM
melting point: 59.9 to 63.4 °C
IC50 [2]: 85000 nM
IC50 [3]: 290000 nM

CC(=O)C1=CC2CCCC(C1)N2C.O=C(O)/C=C/C(=O)O (racemic) [Compound 2d, (±)-3-Acetyl-9-methyl-9-azabicyclo[3.3.1]non-2-ene Fumaric Acid Salt]
IC50 [1, 4]: 4200 nM
melting point: 149 to 151 °C
IC50 [2]: 590 nM
IC50 [3]: 1100 nM

CN1C2C=C(c3cncc(-c4ccccc4)c3)CC1CCC2 (racemic) [Compound 3a, (±)-9-Methyl-3-[3-(5-phenyl)-pyridyl]-9-azabicyclo[3.3.1]non-2-ene Fumaric Acid Salt]
IC50 [1, 4]: 4100 nM
IC50 [2]: 25 nM
IC50 [3]: 150 nM

CN1C2C=C(c3cccc(N4CCCC4)c3)CC1CCC2 (racemic) [Compound 3c, (±)-3-[3-(1-Pyrrolidinyl)-phenyl]-9-methyl-9-azabicyclo[3.3.1]non-2-ene]
IC50 [1]: 18000 nM
IC50 [2, 5]: > 10000 nM
IC50 [3]: > 10000 nM

COc1cncc(C2=CC3CCCC(C2)N3)c1 (racemic) [Compound 3d, (±)-9-H-3-(3-(5-methoxy)-pyridyl)-9-azabicyclo[3.3.1]non-2-ene]
IC50 [1, 4]: 17 nM
IC50 [2, 5]: 3 nM
IC50 [3]: 18 nM

CN1C2C=C(c3cc4ccccc4o3)CC1CCC2 (racemic) [Compound 4a, (±)-3-(2-Benzofuryl)-9-methyl-9-azabicyclo[3.1]non-2-ene Fumaric Acid Salt]
IC50 [1]: 190 nM
IC50 [2, 5]: > 300000 nM
IC50 [3]: > 300000 nM

CN1C2C=C(c3cncc(-c4ccc(Oc5ccccc5)cc4)c3)CC1CCC2.O=C(O)/C=C/C(=O)O (racemic) [Compound 4b, (±)-3-[5-(4-Phenoxyphenyl)-3-pyridyl]-9-methyl-9-azabicyclo[3.3.1]non-2-ene Fumaric Acid Salt]
IC50 [1, 4]: 17000 nM
melting point: 166 to 168 °C
IC50 [2]: 350 nM
IC50 [3]: 690 nM

CN1C2C=C(c3ccoc3)CC1CCC2.O=C(O)/C=C/C(=O)O (racemic) [Compound 4c, (±)-3-(3-Furyl)-9-methyl-9-azabicyclo[3.3.1]non-2-ene Fumaric Acid Salt]
IC50 [1, 4]: 660 nM
melting point: 167 to 174 °C
IC50 [2]: 2000 nM
IC50 [3]: 5000 nM

COc1ccc(C2=CC3CCCC(C2)N3C)cn1 (racemic) [Compound 5b, (±)-3-[3-(6-Methoxy)-pyridyl)]-9-methyl-9-azabicyclo[3.3.1]non-2-ene Fumaric Acid Salt]
IC50 [1, 4]: 2300 nM
IC50 [2]: 2000 nM
IC50 [3]: 17000 nM

CN1C2C=C(c3cccc([N+](=O)[O-])c3)CC1CCC2.O=C(O)/C=C/C(=O)O (racemic) [Compound 5c, (±)-9-Methyl-3-(3-nitrophenyl)-9-azabicyclo[3.3.1]non-2-ene Fumaric Acid Salt]
IC50 [1, 4]: 2200 nM
melting point: 133 to 144 °C
IC50 [2]: 2700 nM
IC50 [3]: 3900 nM

CN1C2C=C(c3cc4ccccc4s3)CC1CCC2 (racemic) [Compound 7a, (±)-3-(2-Benzothienyl)-9-methyl-9-azabicyclo[3.3.1]non-2-ene]
IC50 [1]: 160 nM
IC50 [2, 5]: 280000 nM
IC50 [3]: 280000 nM

CN1C2C=C(c3cc4ccccc4o3)CC1CCC2.O=C(O)/C=C/C(=O)O (racemic) [Compound 7c, (±)-3-(2-Benzofuryl)-9-methyl-9-azabicyclo[3.3.1]non-2-ene Fumaric Acid Salt]
IC50 [1]: 190 nM
melting point: 184 to 186 °C
IC50 [2, 5]: > 300000 nM

CN1C2C=C(c3ccc4ccccc4c3)CC1CCC2 (racemic) [Compound 8c, (±)-3-(2-Naphtyl)-9-methyl-9-azabicyclo[3.3.1]non-2-ene Oxalic Acid Salt]
IC50 [1]: 370 nM
IC50 [2, 5]: > 300000 nM
IC50 [3]: > 300000 nM

C1=C(c2cccnc2)CC2CCCC1N2 (racemic) [Compound 11c, (±)-9-H-3-(3-Pyridyl)-9-azabicyclo[3.3.1]oct-2-ene Fumaric Acid Salt]
IC50 [1, 4]: 170 nM
IC50 [2, 5]: 4.5 nM
IC50 [3]: 46 nM

Reference: patent publication US6392045B1, “9-azobicyclo[3.3.1] non-2-ene derivatives as cholinergic ligands at nicotinic ACH receptors” (NeuroSearch A/S, priority 1997, dated 2002)
